How the values were obtained:
[1] = test system: human prostate cancer ALVA-41 cells; assay: measurement for apoptosis (morphology, annexin V staining, TUNEL assay), ALVA-41 cells; type: cell-based; conditions: ALVA-41 cells
Procedure: The cells were measured for a morphological variation of apoptosis by phase contrast microscopy. The cells of prophase and post-phase apoptosis were detected by annexin V staining and TUNEL assay. In order to carry out the annexin V staining of ALVA-41 cells, the cells were exposed to cathepsin E or cathepsin L for 4 hours and centrifuged. After centrifugation, the separated cells were washed twice with PBS and incubated with fluorescein isothiocyanate-conjugated annexin V for 10 minutes at room temperature in a dark place. The cells that were positive as a result of the annexin V staining were then detected with fluorescence microscope. The TUNEL assay was carried out for the incubated tumor cells using Apop Tag Peroxidase Apoptosis Detection Kit and for heterografts using Tumor TACS In Situ Apoptosis Detection Kit.
In the figure, an indicating bar scale represents 50 μm. […] In the figure, an indicating bar scale represents 50 μm.

[2] = test system: human prostate epithelium (PrE) cells; assay: cell survival rate of normal human prostate epithelial cells; type: cell-based; conditions: 100 μg/ml, 37° C., pH 7.4, 20 hours
Procedure: (§1) The survival rate of cells was measured by Cell Counting Kit-8 in accordance with a manufacturer's manual. The method will be described briefly as follows. A 96-well (each 100 μl) plate was inoculated with cells (1×10^4 cells) and incubated for 24 hours, and the cells were incubated in a non-serum culture medium Opti-MEM together with a given concentration of each cathepsin purified from rat stomach (References #27 and #60-#62). Thereafter, the kit reagent (10 μl) was added to each well and the wells were incubated for another 1 hour. After incubation, each well was measured at the absorbance of 450 nm with a microplate reader.
(§2) In this assay, the cells to be tested were incubated to a ˜80% confluent state and then together with cathepsin E (100 μg/ml) or physiological saline at 37° C. and pH 7.4 for 20 hours, followed by measurements for the cell survival rate by a colorimetric assay. The cell survival rate is represented as a percentage of a corresponding value to the cells treated with physiological saline, and the data is represented as an average value±SD from the data obtained by four separate experiments. […] As an alternative method, a culture medium of each cell line was immunoblot-analyzed using an anti-OPG antibody. […] Thereafter, the immunoblot was analyzed for its concentration in order to determine a quantity of a soluble TRAIL trimer. […]

[3] = test system: various human prostate cancer cell lines; assay: sensitivity of human prostate cancer cell lines to cathepsin E-induced apoptosis; type: cell-based
Procedure: as §1
In this assay, the cells to be tested were incubated to a ˜80% confluent state and then together with cathepsin E (100 μg/ml) or physiological saline at 37° C. and pH 7.4 for 20 hours, followed by measurements for the cell survival rate by a colorimetric assay. The cell survival rate is represented as a percentage of a corresponding value to the cells treated with physiological saline, and the data is represented as an average value±SD from the data obtained by four separate experiments. In this value, *p<0.001 represents a corresponding value to the cells treated with physiological saline. […] In this experiment, the cells were biotinylated with sulfo-NHS-SS-biotin as a […], decomposable reagent and lyzed, and the resulting cell lysate was incubated with streptoavidin-agarose beads at 4° C. for 2 hours. After the beads were washed, the related proteins were subjected to an immunoblot analysis using an anti-TRAIL antibody or an antibody to a TRAIL membrane-related receptor. The cell lysate portion was also subjected to a direct immunoblot analysis using an anti-β-actin antibody. As an alternative method, a culture medium of each cell line was immunoblot-analyzed using an anti-OPG antibody. […] Thereafter, the immunoblot was analyzed for its concentration in order to determine a quantity of a soluble TRAIL trimer. […]

soluble TRAIL trimers = assay: immunoblot densitometry of soluble TRAIL trimer in culture supernatant; type: cell-based, human; conditions: PrE and prostate cancer cell lines treated with cathepsin E
Procedure: The SDS-PAGE and immunoblot analyses were carried out according to prior art literature (Reference #63). The protein fractioned by SDS-PAGE was migrated on nitrocellulose membrane and was blocked with 5% non-fat dried milk. Then, the nitrocellulose membrane was incubated overnight at 4° C. with a primary antibody, i.e., anti-TRAIL antibody (1/300-fold dilution), anti-TNF-α antibody (1/200-fold dilution), anti-FasL antibody (1/500-fold dilution), anti-DR4 antibody (1/500-fold dilution), anti-DR5 antibody (1/100-fold dilution), anti-DcR1 antibody (1/500-fold dilution), anti-DcR2 antibody (1/500-fold dilution), anti-osteoprotegrin (1/150-fold dilution) or anti-β-actin antibody (1/500-fold dilution). […] The resulting membrane was then washed several times and an immunocomplex was detected with a chemiluminescent reagent. The measurement for density was measured with LAS 1000 analyzer.
as §2, with “assay.” for “assay. The cell survival rate is represented as a percentage of a corresponding value to the cells treated with physiological saline, and the data is represented as an average value±SD from the data obtained by four separate experiments.”

[4] = test system: ALVA-41 cells tumor in nude mice; assay: tumor growth in nude mice transplanted subcutaneously with ALVA-41 cells; type: in vivo
Procedure: In order to study the growth of primary tumor, 1 ml of PBS solution containing ALVA-41 cells (5×10^6 cells) was injected subcutaneously into the right flank of a male nude mouse. Separately, a solution of mouse melanoma B16 cells (1×10^6 cells) was likely injected subcutaneously into the right flank of an inbred wild-type (WT) mouse, CatE^−/− mouse and CatE^Tg mouse. The size of the tumor was measured with a caliper, and the tumor volume was calibrated by ab^2/2 (where a and b represent a maximum dimension of the central section and a minimum dimension of the central section, respectively). As the size of the heterograft of the ALVA-41 cell reached approximately 100 mm^3 (approximately at day 12 after injection), animals were divided into two groups of each 5 animals. To the two animal groups, respectively, purified cathepsin E (200 μg per kg of body weight per day) and physiological saline were injected into the central portion of the tumor for 16 days. For a measurement for the tumor weight and an immunohistochemical study, […] reached approximately 400 mm^3. For a study on metastasis, melanoma B16 cells (2×10^5 cells in 50 μl of PBS solution) was injected into a tail vein of a Wt mouse, CatE^−/− mouse and CatE^Tg. The mice were then anesthetized at day 22 after injection and killed with a lethal amount of diethylether, followed by removing the lungs and counting the number of black metastasis colonies.
As the tumor volume reached ˜[…] after subcutaneous injection, cathepsin E (200 μg/kg/day) or physiological saline was subcutaneously injected into the central portion of the tumor for 16 days. […] Data are represented as an average value±SD of the value obtained from three mice per each group. […] The TUNEL assay was carried out by reacting with diaminobenzidine and counter-staining tissue slices with 1% methyl green. Data represent the result obtained from five mice per group. In the figure, the lower image is an expanded version of the upper image. In the figure, a bar scale represents 50 μm.

cathepsin E was tested, and the “staining with annexin V and TUNEL reagent” value ([1]; 50 μg/ml) was “positive”, the “morphological changes of treated cells” value ([1]; microscopy, 100 μg/ml) was “morphological features of apoptosis” and the “influence upon survival and morphology of normal PrE cells” value [2] was “little exerted influences upon the survival and morphology”. For the same substance, the “induction of apoptosis in human prostate cancer cell lines” value ([3]; 100 μg/ml, 37° C., pH 7.4, 20 hours) was “induced apoptosis for all cells”, the “sensitivity as to cell survival effect, PC-3 cells relative to PPC-1 cells” value ([3]; PC-3 versus PPC-1) was “approximately 20 times” and the “order of increasing sensitivity of cell lines to cathepsin E-induced apoptosis” value ([3]; PPC-1, DU145, ALVA-41, PC-3) was “PPC-1<DU145≦ALVA-41<PC-3”. The “order of increasing amounts of soluble TRAIL trimers secreted by treatment” value (soluble TRAIL trimers) was “PrE<PC-3<PPC-1<ALVA-101≦DU145<ALVA-41”, the “growth of tumor compared to saline control” value ([4]; 200 μg/kg daily for 16 days into central portion of tumor, start at approx. 100 mm^3) was “grown in a remarkably controlled manner” and the “weight of the tumor versus control group” value ([4]; 400 μg/kg once per day for 10 days, start at approx. 400 mm^3) was “significantly lower”. For the same substance, the “effect of suppressing the tumor” value ([4]; daily dose of 30 μg/kg or lower) was “little recognized”, the “effect upon regression of tumor” value ([4]; daily dose of 50 μg/kg) was “rather decreased” and the “toxicity toward normal tissues and cells” value ([4]; nude mice administered cathepsin E) was “no effect upon toxicity toward normal tissues and cells can be recognized at all”. For the same substance, the “apoptosis cells in tumor by TUNEL stain” value ([4]; tumors after 10 days administration) was “a number of the apoptosis cells were observed”.
